Results from patent US20170050980A1, “OXADIAZINE COMPOUNDS AND METHODS OF USE THEREOF” (FORUM Pharmaceuticals Inc., priority 2015, published 2017).

Tested on: Aβ42
Assay: In vitro cell screening assay; quantification of Aβ (1-42) peptide by sandwich ELISA
Type: cell-based
Conditions: Human neuroglioma H4 cells stably expressing human wild type APP751; compounds 0.003-10 μM, incubated overnight (16-18 h); Aβ42 in supernatant by sandwich ELISA; normalized to DMSO and DAPT; read-out: Aβ42 H4 Prot Fre IC50
Method: Human neuroglioma H4 cells were transfected with a pcDNA3.1 plasmid expressing human wild type APP751 cDNA and a stable cell line was generated using G418 selection. Cells were plated at 15,000 cells/well in Costar 96-well plates and placed at 37° C. and 5% CO2. Six hours after plating, cells were washed three times with Pro293™ chemically defined medium, followed by addition of compounds (0.003-10 μM, final DMSO concentration of 0.33%). Plates were incubated overnight (16-18 h) and supernatant was removed for quantification of Aβ peptides by sandwich ELISA. Cytotoxicity was evaluated using Cell-Titer 96W AQueous One Solution Cell Proliferation Assay according to the manufacturer's protocol.
Aβ peptide levels were quantified by sandwich ELISA. 96-well plates were coated with C-terminal specific Aβ antibodies recognizing either Aβ37, Aβ38, Aβ40, Aβ42, Aβ43 or a N-terminal specific Aβ antibody to detect Aβ 1-x. Plates were then blocked overnight at 4° C. with 1% bovine serum albumin (BSA) in PBS-T. Plates were washed and 100 μl of cultured cell supernatant or synthetic Aβ peptide standards and a detection antibody (4G8-HRP) were applied to the blocked plate and incubated overnight at 4° C. The next day, wells were washed before the addition of detection substrate (TMB peroxidase). Plates were then read for absorbance at 450 nm on a Molecular Devices SpectraMax M5e Microplate Reader.
Compound-treated samples were normalized to samples treated with DMSO alone (no inhibition) and to samples treated with DAPT. IC50 values were calculated from values reported as percent of DMSO controls using nonlinear regression, based on a sigmoidal dose—response (variable slope) model. […] used for calculation.

| Compound | IC50 |
| --- | --- |
| COc1nc(C2=NOC(C)(C)C(c3ccc(Cl)cc3)N2)ccc1-n1cnc(C)c1 (single isomer, unassigned; (+)) [Example 23B, (+)-5-(4-chlorophenyl)-3-[6-methoxy-5-(4-methyl-1H-imidazol-1-yl)pyridin-2-yl]-6,6-dimethyl-5,6-dihydro-4H-1,2,4-oxadiazine] | 23 nM |
| COc1nc(C2=NOC(C)C(c3ccc(Cl)c(C(F)F)c3)N2)ccc1-n1cnc(C)c1 (single isomer, unassigned; (-)) [Example 55B, (−)-5-(4-chloro-3-(difluoromethyl)phenyl)-3-(6-methoxy-5-(4-methyl-1H-imidazol-1-yl)pyridin-2-yl)-6-methyl-5,6-dihydro-4H-1,2,4-oxadiazine] | 352 nM |
| COc1nc(C2=NOC(C)C(c3cccc(Cl)c3)N2)ccc1-c1ccnc(C)c1 (single isomer, unassigned; (+)) [Example 49B, (+)-5-(3-chlorophenyl)-3-(2-methoxy-2′-methyl-[3,4′-bipyridin]-6-yl)-6-methyl-5,6-dihydro-4H-1,2,4-oxadiazine] | 15.8 nM |
| COc1nc(C2=NOC(C)C(c3c4n(c5ccc(Cl)cc35)CCOC4)N2)ccc1-n1cnc(C)c1 (single isomer, unassigned; (+)) [Example 50A, (+)-8-chloro-10-(3-(6-methoxy-5-(4-methyl-1H-imidazol-1-yl)pyridin-2-yl)-6-methyl-5,6-dihydro-4H-1,2,4-oxadiazin-5-yl)-3,4-dihydro-1H-[1,4] oxazino [4,3-a] indole] | 3.2 nM |
| COc1nc(C2=NOC(C)C(c3cn(C)c4ncc(F)c(F)c34)N2)ccc1-n1cnc(C)c1 (single isomer, unassigned; (-)) [Example 51B, (−)-5-(4,5-difluoro-1-methyl-1H-pyrrolo [2,3-b]pyridin-3-yl)-3-(6-methoxy-5-(4-methyl-1H-imidazol-1-yl)pyridin-2-yl)-6-methyl-5,6-dihydro-4H-1,2,4-oxadiazine] | 218 nM |
| COc1nc(C2=NOC(C3CC3)C(c3cn(C)c4ncc(F)c(F)c34)N2)ccc1-n1cnc(C)c1 (single isomer, unassigned; (-)) [Example 60B, (−)-6-cyclopropyl-5-(4,5-difluoro-1-methyl-1H-pyrrolo [2,3-b]pyridin-3-yl)-3-(6-methoxy-5-(4-methyl-1H-imidazol-1-yl)pyridin-2-yl)-5,6-dihydro-4H-1,2,4-oxadiazine] | 42.7 nM |
| COc1nc(C2=NOC(C)C(c3cn(C)c4ncc(Cl)cc34)N2)ccc1-n1cnc(C)c1 (single isomer, unassigned; (+)) [Example 54B, (+)-5-(5-chloro-1-methyl-1H-pyrrolo [2,3-b]pyridin-3-yl)-3-(6-methoxy-5-(4-methyl-1H-imidazol-1-yl)pyridin-2-yl)-6-methyl-5,6-dihydro-4H-1,2,4-oxadiazine] | 6.3 nM |
| COc1nc(C2=NOC(C)C(c3cccc(Cl)c3)N2)ccc1-n1cnc(C)n1 (single isomer, unassigned; (+)) [Example 53B, (+)-5-(3-chlorophenyl)-3-(6-methoxy-5-(3-methyl-1H-1,2,4-triazol-1-yl)pyridin-2-yl)-6-methyl-5,6-dihydro-4H-1,2,4-oxadiazine] | 172 nM |
| COc1nc(C2=NOC(C)C(c3cn(C)c4ccc(F)c(F)c34)N2)ccc1-n1cnc(C)c1 (single isomer, unassigned; (-)) [Example 52A, (−)-5-(4,5-difluoro-1-methyl-1H-indol-3-yl)-3-(6-methoxy-5-(4-methyl-1H-imidazol-1-yl)pyridin-2-yl)-6-methyl-5,6-dihydro-4H-1,2,4-oxadiazine] | 84 nM |
| COc1nc(C2=NOC(C)C(c3cn(C)c4ncc(F)c(F)c34)N2)ccc1-n1cnc(C)c1 (single isomer, unassigned; (+)) [Example 51C, (+)-5-(4,5-difluoro-1-methyl-1H-pyrrolo [2,3-b]pyridin-3-yl)-3-(6-methoxy-5-(4-methyl-1H-imidazol-1-yl)pyridin-2-yl)-6-methyl-5,6-dihydro-4H-1,2,4-oxadiazine] | 975 nM |
| COc1nc(C2=NOC(C)C(c3nn(C)c4ccc(Cl)cc34)N2)ccc1-n1cnc(C)c1 (stereo not drawn) [Example 69A, (+)-(cis)-5-(5-chloro-1-methyl-1H-indazol-3-yl)-3-(6-methoxy-5-(4-methyl-1H-imidazol-1-yl)pyridin-2-yl)-6-methyl-5,6-dihydro-4H-1,2,4-oxadiazine] | 5.9 nM |
| COc1nc(C2=NOC(C)(C)C(c3ccc(Cl)cc3)N2)ccc1-n1cnc(C)c1 (single isomer, unassigned; (-)) [Example 23A, (−)-5-(4-chlorophenyl)-3-[6-methoxy-5-(4-methyl-1H-imidazol-1-yl)pyridin-2-yl]-6,6-dimethyl-5,6-dihydro-4H-1,2,4-oxadiazine] | 1140 nM |
| COc1nc(C2=NOC(C3CC3)C(c3cc(F)cc(F)c3)N2)ccc1-n1cnc(C)c1 (single isomer, unassigned; (+)) [Example 59A, (+)-6-cyclopropyl-5-(3,5-difluorophenyl)-3-(6-methoxy-5-(4-methyl-1H-imidazol-1-yl)pyridin-2-yl)-5,6-dihydro-4H-1,2,4-oxadiazine] | 20.7 nM |
| COc1nc(C2=NOC(C)C(c3ccc(Cl)cc3)N2)ccc1-n1cnc(C)c1 (stereo not drawn) [Example 24A, (−)-trans-5-(4-chlorophenyl)-3-[6-methoxy-5-(4-methyl-1H-imidazol-1-yl)pyridin-2-yl]-6-methyl-5,6-dihydro-4H-1,2,4-oxadiazine] | 1200 nM |
| COc1nc(C2=NOCC(c3c4n(c5ccc(Cl)cc35)CCOC4)N2)ccc1-n1cnc(C)c1 (single isomer, unassigned; (+)) [Example 28A, (+)-8-chloro-10-(3-(6-methoxy-5-(4-methyl-1H-imidazol-1-yl)pyridin-2-yl)-5,6-dihydro-4H-1,2,4-oxadiazin-5-yl)-3,4-dihydro-1H-[1,4]oxazino[4,3-a]indole] | 5.3 nM |
| COc1nc(C2=NOC(C)C(c3cc4ccc(Cl)cc4o3)N2)ccc1-n1cnc(C)c1 (single isomer, unassigned) [Example 46A, 5-(6-chlorobenzofuran-2-yl)-3-(6-methoxy-5-(4-methyl-1H-imidazol-1-yl)pyridin-2-yl)-6-methyl-5,6-dihydro-4H-1,2,4-oxadiazine] | 225 nM |
| COc1nc(C2=NOC3(CC3)C(c3ccc(Cl)cc3)N2)ccc1-n1cnc(C)c1 (single isomer, unassigned; (+)) [Example 25B, (+)-8-(4-chlorophenyl)-6-[6-methoxy-5-(4-methyl-1H-imidazol-1-yl)pyridin-2-yl]-4-oxa-5,7-diazaspiro[2.5]oct-5-ene] | 26 nM |
| COc1nc(C2=NOC(C)C(c3ccc(Cl)c(Cl)c3)N2)ccc1-n1cnc(C)c1 (stereo not drawn) [Example 19A, (−)-cis-5-(3,4-dichlorophenyl)-3-[6-methoxy-5-(4-methyl-1H-imidazol-1-yl)pyridin-2-yl]-6-methyl-5,6-dihydro-4H-1,2,4-oxadiazine] | 910 nM |
| COc1nc(C2=NOC(C)C(c3cn(C)c4cc(F)c(F)cc34)N2)ccc1-n1cnc(C)c1 (single isomer, unassigned; (+)) [Example 39D, (+)-5-(5,6-difluoro-1-methyl-1H-indol-3-yl)-3-(6-methoxy-5-(4-methyl-1H-imidazol-1-yl)pyridin-2-yl)-6-methyl-5,6-dihydro-4H-1,2,4-oxadiazine] | 4.4 nM |
